Data published in ChEMBL document CHEMBL3779857, “Aspidofractinine and Eburnane Alkaloids from a North Borneo Kopsia. Ring-Contracted, Additional Ring-Fused, and Paucidactine-Type Aspidofractinine Alkaloids from K. pauciflora” (J Nat Prod, 2016).

Tests used:
Type in all cases: functional, cell-based
[1] = system: KB; test: Cytotoxicity against human vincristine-sensitive KB cells assessed as cell viability after 72 hrs by MTT assay
[2] = Cytotoxicity against human KB/VJ300 cells assessed as cell viability after 72 hrs by MTT assay; conditions: KB/VJ300, 72 h
[3] = system: A549; test: Cytotoxicity against human A549 cells assessed as cell viability after 72 hrs by MTT assay; conditions: A549, 72 h
[4] = Cytotoxicity against human KB/VJ300 cells assessed as cell viability after 72 hrs by MTT assay in presence of 0.121 uM vincristine; conditions: KB/VJ300, 72 h
[5] = Cytotoxicity against human PC3 cells assessed as cell viability after 72 hrs by MTT assay; conditions: PC-3, 72 h
[6] = Cytotoxicity against human HCT116 cells assessed as cell viability after 72 hrs by MTT assay; conditions: HCT-116, 72 h
[7] = system: MCF7; test: Cytotoxicity against human MCF7 cells assessed as cell viability after 72 hrs by MTT assay; conditions: MCF7, 72 h

SMILES: COC(=O)N1c2c(OC)cccc2[C@]23C4C(=O)[C@H]5C[C@@]6(CCCN(C4=O)[C@@H]62)CC[C@]513 (stereo partly specified)
- IC50 [1]: > 25 µg/mL
- IC50 [2]: > 25 µg/mL

SMILES: COC(=O)[C@@H]1C[C@]23CC[C@@]14Nc1ccccc1[C@@]41CCN(C4=CC(=O)C[C@H]4C2)[C@@H]31
- IC50 [1]: > 25 µg/mL
- IC50 [2]: > 25 µg/mL

SMILES: O=C1OC2C(=O)N3CCC[C@]45CC[C@@]6(Nc7ccccc7[C@@]26[C@@H]34)[C@@H]1C5 (stereo partly specified)
- IC50 [1]: > 25 µg/mL
- IC50 [2]: > 25 µg/mL

SMILES: CC[C@]1(O)C[C@H]2CN(CCc3c([nH]c4ccccc34)[C@@](C(=O)OC)(c3cc4c(cc3OC)N(C=O)[C@H]3[C@@](O)(C(=O)OC)[C@H](OC(C)=O)[C@]5(CC)C=CCN6CC[C@]43[C@@H]65)C2)C1 [VINCRISTINE]
- IC50 [1]: 0.0033 µM
- IC50 [2]: 7.5 µM

SMILES: O=C1OC2CN3CCC[C@]45CC[C@@]6(Nc7ccccc7[C@@]26[C@@H]34)[C@@H]1C5 (stereo partly specified)
- IC50 [1]: > 25 µg/mL
- IC50 [2]: > 25 µg/mL

SMILES: COC(=O)[C@@H]1C[C@]23CC[C@@]14Nc1ccccc1[C@@]41CCN(C(=O)C2)[C@@H]31
- IC50 [1]: > 25 µg/mL
- IC50 [2]: > 25 µg/mL

SMILES: COC(=O)[C@@H]1C[C@]23CC[C@@]14Nc1ccccc1[C@@]41CCN(C=C(C=O)C2)[C@@H]31
- IC50 [1]: > 25 µg/mL
- IC50 [2]: > 25 µg/mL

SMILES: CCO[C@H]1C[C@@]2([C@@H](C)O)CCCN3CCc4c(n1c1ccccc41)[C@H]32
- IC50 [1]: > 25 µg/mL
- IC50 [2]: > 25 µg/mL

SMILES: C[C@@H](O)[C@]12C=Cn3c4c(c5ccccc53)CCN(CCC1)[C@@H]42
- IC50 [1]: > 25 µg/mL
- IC50 [2]: > 25 µg/mL

SMILES: COC(=O)[C@@H]1C[C@@]23CCCN4CC[C@@]5(c6ccc([C@@H]7C[C@@]8([C@@H](C)O)CCCN9CCc%10c(n7c7ccccc%107)[C@H]98)cc6N[C@]15CC2)[C@@H]43
- IC50 [3]: > 25 µg/mL
- IC50 [1]: 28.8 µM
- IC50 [2]: > 25 µg/mL
- IC50 [4]: 13.6 µM
- IC50 [5]: 15.3 µM
- IC50 [6]: 25.1 µM
- IC50 [7]: 22.3 µM

SMILES: CC[C@@]12CCCN3CCc4c(n(c5ccccc45)[C@H](c4ccc5c(c4)N[C@@]46CC[C@]7(CCCN8CC[C@]54[C@@H]87)C[C@H]6C(=O)OC)C1)[C@H]32
- IC50 [3]: 33.1 µM
- IC50 [1]: 24.2 µM
- IC50 [2]: 37.3 µM
- IC50 [4]: 7.8 µM
- IC50 [5]: 11.5 µM
- IC50 [6]: 12.3 µM
- IC50 [7]: 15.7 µM

SMILES: CC(=O)[C@@]12CCCN3CCc4c(n(c5ccccc45)[C@@H](O)C1)[C@H]32
- IC50 [1]: > 25 µg/mL
- IC50 [2]: > 25 µg/mL

SMILES: CC[C@@]12CCCN3CCc4c(n(c5ccccc45)[C@H](c4ccc5c(c4)N[C@@]46CC[C@]7(CCCN8CC[C@]54[C@@H]87)C[C@H]6C(=O)O)C1)[C@H]32
- IC50 [3]: > 25 µg/mL
- IC50 [1]: > 25 µg/mL
- IC50 [2]: > 25 µg/mL
- IC50 [4]: > 25 µg/mL
- IC50 [5]: > 25 µg/mL
- IC50 [6]: > 25 µg/mL
- IC50 [7]: > 25 µg/mL

SMILES: COC(=O)N1c2c(ccc3c2OCO3)[C@@]23C4CN5CCC[C@]6(CC[C@]12[C@](O)(C6)OC4=O)[C@H]53 (stereo partly specified)
- IC50 [1]: > 25 µg/mL
- IC50 [2]: > 25 µg/mL

SMILES: C[C@H]1O[C@@H]2C[C@]13CCCN1CC[C@]4(C(=O)c5ccccc5N24)[C@H]13
- IC50 [1]: > 25 µg/mL
- IC50 [2]: > 25 µg/mL

SMILES: COc1ccc(CCN(C)CCCC(C#N)(c2ccc(OC)c(OC)c2)C(C)C)cc1OC (stereo unspecified)
- IC50 [1]: > 25 µg/mL
